Tests used:
PBMCs = assay: Cytokine release from PHA-stimulated PBMCs; assay type: cell-based, human; settings: 1, 2.5, and 5 μM, 18 h
Method: Human PBMCs from healthy donors were isolated from heparinized blood by density gradient centrifugation with Ficoll-Paque. The isolated cells were washed twice with PBS, resuspended in RPMI 1640 medium (Sigma-Aldrich, St. Louis, MO, USA) supplemented with 10% heat-inactivated fetal bovine serum (Gibco), 2 mM L-glutamine (Sigma-Aldrich), 100 U/mL penicillin (Sigma-Aldrich), and 100 μg/mL streptomycin (Sigma-Aldrich), and used in the assays.
Peripheral blood mononuclear cells were seeded (500,000 cells/well) in 24-well plates in 500 μL of growth medium and treated with compounds 94, 95, and neflamapimod (1, 2.5, and 5 μM) in the presence or absence of PHA (1 μg/mL) or the corresponding vehicle (0.1% DMSO). Cell-free supernatants were collected after 18 h of incubation (37 °C, 5% CO2) and stored at −80 °C until tested. Cytokine production was determined with BD Cytometric Bead Array human inflammatory cytokines kit (BD Bioscience) on an Attune NxT flow cytometer (Thermo Fisher Scientific, Waltham, MA, USA). Standard curves were generated using recombinant cytokines contained in the kit. The data were analyzed using the FlowJo (Tree Star, Inc., Ashland, OR, USA) and Prism (GraphPad Prism 6.0, GraphPad Software) software.

[1] = test system: scopolamine-induced cognitive deficits in mice; assay: Passive avoidance task, scopolamine-induced amnesia; assay type: in vivo; settings: 1–30 mg/kg i.p.
Description: (§1) In the scopolamine model, the PA and NOR tasks were used for dose selection for further testing.
The mice had unlimited access to food and water prior to the experiment. Specified conditions for the maintenance of mice were ensured throughout the experiment, including tree bedding (Transwior, Poland) and cage enrichment (tunnels, nesting material, wooden igloos, etc.). For behavioral tests, the mice were selected randomly; each group consisted of 7–10 mice.
(§2) Scopolamine hydrobromide (Sigma-Aldrich, Poland) at the dose of 1 mg/kg was used to induce learning and memory deficits. For the in vivo tests, scopolamine was prepared in distilled water (Polfa Kutno, Poland) and was administered subcutaneously (s.c.) 30 min before behavioral tests during the acquisition (training) trial of PA and NOR tasks. […] They were administered intraperitoneally (i.p.) 60 min before the acquisition trial of the PA, NOR, and MWM tasks.
The PA apparatus (Panlab Harvard Apparatus, Spain) consists of a large white-colored illuminated compartment (26 cm × 26 cm × 34 cm) and a small black-colored compartment (13 cm × 7.5 cm × 7.5 cm), which are separated from each other by a guillotine gate (5 cm × 5 cm). The PA task is divided into two trials (i.e., the acquisition trial and the retention trial), each conducted 24 h apart. On the first day, during the acquisition trial (a conditioning phase), the test compounds (94 and 95, neflamapimod and vehicle) were injected. Also, before the acquisition trial, scopolamine or LPS was administered at selected time points. Then, each mouse was placed into the white compartment, and a 30 s habituation period began (guillotine gate is closed). After that, the guillotine gate was opened, and the mice were tested during the 180 s testing period. As soon as the mouse entered the black compartment of the PA device, the guillotine gate was closed and an electrical shock (intensity: 0.2 mA, duration: 2 s) was automatically applied through the grid floor. For each mouse, the latency between the opening of the guillotine gate and the mouse’s entering the black compartment was measured. On the next day, during the retention (drug-off) trial, the mice were placed again into the white compartment for a 30 s habituation period, and the latency to enter the black compartment was measured for each mouse.

[2] = test system: scopolamine-induced cognitive deficits in mice; assay: Novel object recognition task, scopolamine-induced amnesia; assay type: in vivo; settings: 1, 10, and 30 mg/kg i.p.; scopolamine model
Description: as §1
The mice had unlimited access to food and water prior to the experiment. Specified conditions for the maintenance of mice were ensured throughout the experiment, including tree bedding (Transwior, Poland) and cage enrichment (tunnels, nesting material, wooden igloos, etc.). For behavioral tests, the mice were selected randomly; each group consisted of 7–10 mice. […] The procedures for maintenance and treatment of laboratory animals were approved by the first Local Ethics Committee in Krakow (Approval No. 645/2022, 760/2023, and 829/2024 and the treatment of animals was in full accordance with ethical standards laid down in respective Polish and EU regulations (Directive 2010/63/EU).
as §2
The experiment was conducted in opaque black boxes with dimensions of 50 × 50 × 50 cm. The 3 day procedure consists of habituation to the test arena (without any objects) for 10 min on the first day (T0), a training trial (T1), and a testing trial (T2) separated by a 24 h intertrial interval. During T1 (familiarization trial), two identical objects (A and B) were presented in the opposite corners of the arena, approximately 5 cm from its walls. During T2 (recognition trial), one of the objects (B) was replaced by a novel object (C), so that the animals were presented with A (familiar) and C (novel) objects. Both T1 and T2 trials lasted for 10 min, and after each trial, the animals returned to their home cages. White plastic round containers (height 5 cm, diameter 5 cm) attached to the ground with double-sided tape were used as the A, B objects, and green cuboids of similar height were used as object C. The objects were stable enough so that the animals could not displace them. The sequence of presentations and the location of the objects were randomly assigned to each mouse. The animals explored the objects by looking, licking, sniffing, or touching them while sniffing, but not when leaning against, standing, or sitting on the objects. Any mouse exploring the two objects for less than 5 s within the 10 min duration of T1 or T2 was eliminated from the study. An experimenter, blind to the drug treatment, measured the exploration time of the objects.

LPS-treated mice = assay: Morris water maze task, LPS model of neuroinflammation; assay type: in vivo
Method: The compounds were administered for 10 consecutive days, and on the last 6 days of their administration, LPS was also administered intraperitoneally 5 h before the test compounds. On these 6 days, the acquisition phase of the MWM task was performed. One day later, the retention, drug-off trial of the MWM task was carried out.
In the LPS model adult male C57BL/6J mice (Animal Breeding Farm of the Faculty of Pharmacy, Jagiellonian University Medical College) of similar weight and age were used. […] The mice had unlimited access to food and water prior to the experiment. Specified conditions for the maintenance of mice were ensured throughout the experiment, including tree bedding (Transwior, Poland) and cage enrichment (tunnels, nesting material, wooden igloos, etc.). For behavioral tests, the mice were selected randomly; each group consisted of 7–10 mice. […] After in vivo tests, the animals were immediately euthanized, and their tissues were collected and stored for further ex vivo testing.
LPS (Lipopolysaccharide from Escherichia coli O111:B4, Sigma-Aldrich, Poland) was used to induce neuroinflammation in mice. […] They were administered intraperitoneally (i.p.) 60 min before the acquisition trial of the PA, NOR, and MWM tasks. […] In the rotarod, locomotor activity, and MWM tests, only one dose effective in the scopolamine model of amnesia was evaluated.
The Morris water maze is a circular, plastic, and gray-painted pool (120 cm in diameter and 60 cm in height), filled with water (up to about 48 cm below the edge to prevent an animal from jumping out), maintained at 23 ± 1 °C. The pool was divided into four equal quadrants (compass locations: NE, NW, SE, SW) by a computerized video tracking system (SMART, ver. 3.0; Panlab, Spain). An escape platform (11 cm in diameter and 47 cm in height) at a fixed location (the center of the NW quadrant, i.e., the target quadrant) was made of transparent Plexiglas, being invisible to the swimming animal, and was immersed 1 cm under the surface of water. The maze was lighted with an intensity of 45 lx. […] The time taken to reach the hidden platform (escape latency) on days 1–6 was recorded for each mouse and analyzed. Each animal was released from a different starting point and was allowed to swim for 60 s. […] On the seventh day (a drug-off trial conducted 24 h after the last training trial), the platform was removed from the pool, and a probe trial was performed (without drug treatmentassessment of memory retention).

[3] = test system: mice (motor coordination); assay: Rotarod test; settings: 6, 18, and 24 rpm; all mice of the group
Method: For behavioral tests, the mice were selected randomly; each group consisted of 7–10 mice.
In the rotarod, locomotor activity, and MWM tests, only one dose effective in the scopolamine model of amnesia was evaluated.
Three days before the rotarod test, the mice were trained on the rotarod apparatus (Rotarod apparatus, May Commat RR0711, Turkey; rod diameter: 2 cm) that was rotated at a fixed speed of 18 rpm. In each training session, the mice were placed on the rotating rod for 3 min with an unlimited number of trials. The proper experiment was performed 24 h after the last training trial. […] Motor impairments in mice were defined as the inability to remain on the rotarod apparatus for 1 min. The results are expressed as the mean time spent on the rotarod.

[4] = test system: mice (locomotor activity); assay: Locomotor activity test; settings: 30 mg/kg, i.p., mean ± SEM
Description: The mice had unlimited access to food and water prior to the experiment. Specified conditions for the maintenance of mice were ensured throughout the experiment, including tree bedding (Transwior, Poland) and cage enrichment (tunnels, nesting material, wooden igloos, etc.). For behavioral tests, the mice were selected randomly; each group consisted of 7–10 mice. […] After in vivo tests, the animals were immediately euthanized, and their tissues were collected and stored for further ex vivo testing.
They were administered intraperitoneally (i.p.) 60 min before the acquisition trial of the PA, NOR, and MWM tasks.
The locomotor activity test was performed using activity cages (40 cm × 40 cm × 30 cm, supplied with IR beam emitters) (Activity Cage 7441, Ugo Basile, Italy) connected to a counter for the recording of light-beam interrupts. […] The animals’ movements (i.e., the number of light-beam crossings) were counted during the next 60 min of the test. Before the experiment, the mice were habituated to activity cages for 15 min.

[5] = Pharmacokinetic study in mice; settings: for Kp: brain/serum; for half-life: serum and brain
Method: In this study, male CD-1 mice weighing 27–34 g housed in conditions of constant temperature with a 12:12 h light-dark cycle with free access to food and water were used. Both tested and reference compounds were suspended in 1% Tween in water for injection (Polpharma, Poland) and administered intraperitoneally (i.p.). The mice were sacrificed by decapitation under isoflurane anesthesia at different time points following compound administration. Brains were harvested at the same time points. Blood was allowed to clot at room temperature for 20 min, and serum was separated by centrifugation at 8 000g (Eppendorf MiniSpin centrifuge, Germany) for 10 min. All samples were stored at −80 °C until analysis.
The analytical workflow employed a Sciex QTRAP 4500 triple quadrupole mass spectrometer interfaced with an Exion LC AC HPLC system (Danaher Corporation, USA). Chromatographic separation was achieved on an XBridge C18 column (3 × 50 mm, 5 μm; Waters, USA), utilizing a mobile phase composed of acetonitrile and water both containing 0.1% formic acid. The column temperature was maintained at 40 °C, and a gradient elution protocol (Table S10) was implemented to ensure optimal analyte resolution and retention times. Mass spectrometric detection was conducted in unit resolution mode, with ion transitions specified in Table S11. […] Valsartan served as the internal standard and was monitored at m/z 436 → 207 (collision energy = 42 eV). Positive electrospray ionization (ESI+) was employed to enhance detection sensitivity. Ion path parameters (Table S11) were optimized via direct infusion of analyte solutions (7 μL/min) using a syringe pump. The optimized source conditions included an ion spray voltage of 5500 V, a source temperature of 450 °C, curtain gas pressure at 20 psi, and medium collision gas pressure. […] No significant matrix effects or stability concerns were observed during routine sample analysis. Data acquisition and processing were carried out using Analyst software version 1.7.
Serial dilutions were performed to generate working solutions ranging from 0.01 to 20 μg/mL, corresponding to final calibration concentrations of 0.001–2 μg/mL. For calibration curve construction, 5 μL of each working solution was spiked into 45 μL of the relevant biological matrix (serum or brain homogenate) and vortexed for 10 s. Sample preparation involved protein precipitation, in a 1:3 (v/v) ratio, using acetonitrile containing 0.1% formic acid and the internal standard. The mixtures were agitated for 10 min using an IKA Vibrax VXR shaker (Germany), followed by centrifugation at 8000 × g for 5 min (Eppendorf miniSpin, Germany). The resulting supernatants were transferred to chromatographic vials for analysis.
Brain tissues were homogenized in distilled water at a 1:4 (w/v) ratio using an ULTRA-TURRAX T10 basic homogenizer (IKA, Germany). Aliquots of brain homogenate or serum (50 μL) were subjected to protein precipitation in a 1:3 (v/v) ratio with acetonitrile containing 0.1% formic acid and the internal standard. The mixtures were agitated for 10 min using an IKA Vibrax VXR shaker (Germany), followed by centrifugation at 8000 × g for 5 min (Eppendorf miniSpin, Germany). The resulting supernatants were directly transferred to chromatographic vials for analysis. In cases where analyte concentrations in serum exceeded 20 μg/mL, samples were diluted with blank matrix prior to the deproteinization step. The autosampler was maintained at 15 °C, and a 1 μL aliquot was injected onto the analytical column.
Pharmacokinetic parameters were estimated using the noncompartmental analysis (NCA). The maximum concentration (C max) and the time to reach maximum concentration (t max) in serum and brain were obtained directly from the concentration versus time data.

[6] = test system: TLR4, COX-2, NLRP3, cPLA2 levels in brains of LPS-treated mice; assay: Western blot of brains of LPS-treated mice (ex vivo); assay type: in vivo; settings: 94, 95: 10 mg/kg i.p.; rivastigmine 1 mg/kg i.p.; vs LPS-treated control
Method: After the completion of cognitive assays carried out in the LPS model, the mice were sacrificed, and their brains were collected and stored for further analysis. In the ex vivo part of the study, murine brains were homogenized using T-PER mammalian protein extraction reagent (Thermo Fisher Scientific, Waltham, MA, USA) with protease (Merck Millipore, Burlington, MA, USA) and phosphatase inhibitors (Cayman Chemical, Ann Arbor, MI, USA). The total protein concentrations were determined using the Bradford reaction. Forty μg of the total proteins were solubilized in Laemmli buffer with 2% 2-mercaptoethanol and were subject to 10% SDS-polyacrylamide gel electrophoresis. The anticyclooxygenase 2 (COX-2, diluted 1:1000), antitoll-like receptor 4 (TLR4, diluted 1:1000), anticytosolic phospholipase A2 (cPLA2, 1:1000), and anti-inflammasome (NLPR3, diluted 1:500) were used (Thermo Fisher Scientific, Waltham, MA, USA). The endogenous control was β-actin (1:1000) (Thermo Fisher Scientific, Waltham, MA, USA). The secondary antibody was antirabbit IgG (HRP) diluted 1:2000 (Thermo Fisher Scientific, Waltham, MA, USA). Proteins were detected using the Clarity Western ECL Luminol Substrate (Bio-Rad, Hercules, CA, USA). Chemi Doc Camera with Image Lab 6.1 software (Bio-Rad) was used to quantify the integrated optical density of the bands. The results were normalized to the data obtained for β-actin after stripping the PVDF membrane using Restore Western Blot Stripping Buffer (Thermo Fisher Scientific, Waltham, MA, USA) and expressed as relative to the control. This thorough process ensures the validity and reliability of the results.

[7] = PAMPA
[8] = test system: mice (motor coordination); settings: already at the dose of 1 mg/kg, as shown previously; cited from earlier work
[9] = test system: scopolamine-induced cognitive deficits in mice; settings: scopolamine-induced memory-impaired mice; doses of 1 and 2.5 mg/kg; reported previously; cited from earlier work
[10] = test system: scopolamine-induced cognitive deficits in mice; settings: 1 and 2.5 mg/kg doses; as shown previously; cited from earlier work
[11] = 10 mg/kg i.p., p < 0.05 vs LPS-treated control
[12] = brain, neflamapimod 30 mg/kg i.p., mice
[13] = male, CD-1, mouse, brain, ip, 30 mg/kg
[14] = male, CD-1, mouse, ip, 30 mg/kg
[15] = male, CD-1, mouse, serum, ip, 30 mg/kg
[16] = brain, rivastigmine 2.5 mg/kg i.p., mice
[17] = male, CD-1, mouse, brain, ip, 2.5 mg/kg
[18] = male, CD-1, mouse, ip, 2.5 mg/kg
[19] = male, CD-1, mouse, serum, ip, 2.5 mg/kg

With `O=c1ncn2nc(Sc3ccc(F)cc3F)ccc2c1-c1c(Cl)cccc1Cl` [neflamapimod, reference compound] as the compound, how does the “production of pro-inflammatory cytokines IL-8, IL-1β, IL-6, IL-10, and TNF-α” value (PBMCs) read?
The value was “significantly inhibited”.

What about the “effect on scopolamine-induced memory decline in PA task” value [1] of the same compound?
The value was “did not confirm memory-improving properties”.

What about the “effect in NOR task” value [2] of the same compound?
Its value is “did not reveal its memory-improving properties”.

What about the “time spent at the target zone (MWM day 7)” value (LPS-treated mice; [11]) of the same compound?
Its value is “increased”.

What about the “time spent in the NW zone (MWM day 7)” value (LPS-treated mice; [11]) of the same compound?
Its value is “increased”.

And the “spatial learning, acquisition phase of MWM” value (LPS-treated mice; 10 and 30 mg/kg i.p., LPS-treated mice)?
The value was “effective in improving spatial learning only on day 3”.

And the “time spent on the rotarod” value [3]?
The value was 60 s.

What about the “number of light-beam crossings” value [4] of the same compound?
Its value is 2481 ± 195.

And the “AUC0-∞” value [5, 12]?
Its value is 755355.60 ng·min/mL(g).

What about the AUC(0-t) [5, 12] of the same compound?
Its AUC(0-t) is 566796.70 ng·min/mL(g).

And the t0.5λz [5, 12]?
Its t0.5λz is 1049.79 min.

And the Cmax [5, 13]?
The Cmax was 2290 ng/g.

And the MRT [5, 13]?
Its MRT is 999 min.

What about the Tmax [5, 13] of the same compound?
Its Tmax is 15 min.

And the k el [5, 13]?
The k el was 1.1e-05 s⁻¹.

And the Kp [5, 14]?
The Kp was 0.68.

And the half-life [5, 14]?
The half-life was ~1000 min.

What about the AUC(0-inf) [5, 15] of the same compound?
Its AUC(0-inf) is 18700 ng·h/mL.

What about the AUC(0-t) [5, 15] of the same compound?
Its AUC(0-t) is 14400 ng·h/mL.

What about the CL/F [5, 15] of the same compound?
The CL/F was 27 mL/min/kg.

And the Cmax [5, 15]?
Its Cmax is 4090 ng/mL.

What about the MRT [5, 15] of the same compound?
The MRT was 903 min.

And the Tmax [5, 15]?
The Tmax was 15 min.

What about the Vd/F [5, 15] of the same compound?
Its Vd/F is 37.8 L/kg.

And the k el [5, 15]?
Its k el is 1.18e-05 s⁻¹.

What about the t0.5λz ([5]; serum, neflamapimod 30 mg/kg i.p., mice) of the same compound?
The t0.5λz was 978.45 min.

For `CCN(C)C(=O)Oc1cccc([C@H](C)N(C)C)c1` [rivastigmine, reference compound], which “efficacy in the LPS model of neuroinflammation accompanied by memory decline” value (LPS-treated mice; 1 mg/kg i.p.) is on record?
The value was “not effective”.

And the “escape latency, acquisition phase of MWM” value (LPS-treated mice; 1 mg/kg i.p., vs LPS-treated control, transient, not on days 4–6)?
Its value is “statistically significantly lower escape latencies were observed on day 3”.

And the “brain cPLA2 expression” value [6]?
The value was “no difference”.

And the “brain levels of TLR4, COX-2, and NLRP3” value [6]?
The value was “significantly lower levels”.

And the “CNS (+/–)” value [7]?
The value was “CNS+ (key: CNS+ indicates high predicted BBB permeation [Pe (×10–6 cm/s) > 4.0]; CNS– indicates low predicted BBB permeation [Pe (×10–6 cm/s) < 2.0])”.

And the “motor side effects shortly after administration” value [8]?
The value was “caused muscle tremor and transient motor coordination deficits”.

And the “procognitive efficacy in PA task” value [9]?
Its value is “procognitive activity”.

And the “efficacy in PA and NOR tasks” value [10]?
The value was “effective”.

And the “AUC0-∞” value [5, 16]?
Its value is 12082.71 ng·min/mL(g).

What about the AUC(0-t) [5, 16] of the same compound?
The AUC(0-t) was 11678.40 ng·min/mL(g).

What about the t0.5λz [5, 16] of the same compound?
Its t0.5λz is 32.64 min.

And the Cmax [5, 17]?
The Cmax was 609 ng/g.

What about the MRT [5, 17] of the same compound?
Its MRT is 26.6 min.

What about the Tmax [5, 17] of the same compound?
Its Tmax is 5 min.

And the k el [5, 17]?
The k el was 0.00035 s⁻¹.

What about the Kp [5, 18] of the same compound?
The Kp was 4.16.

And the half-life [5, 18]?
Its half-life is ~30 min.

What about the AUC(0-inf) [5, 19] of the same compound?
The AUC(0-inf) was 48.4 ng·h/mL.

What about the AUC(0-t) [5, 19] of the same compound?
The AUC(0-t) was 46.8 ng·h/mL.

And the CL/F [5, 19]?
The CL/F was 860 mL/min/kg.

And the Cmax [5, 19]?
The Cmax was 142 ng/mL.

What about the MRT [5, 19] of the same compound?
The MRT was 27.8 min.

What about the Tmax [5, 19] of the same compound?
Its Tmax is 5 min.

What about the Vd/F [5, 19] of the same compound?
The Vd/F was 37.2 L/kg.

What about the k el [5, 19] of the same compound?
Its k el is 0.000383 s⁻¹.

And the t0.5λz ([5]; serum, rivastigmine 2.5 mg/kg i.p., mice)?
Its t0.5λz is 29.99 min.
